In patent US20260284011A1, “COMPOUNDS FOR RESTORING SUSCEPTIBILITY TO BETA-LACTAM ANTIBIOTICS” (UNIVERSITY OF NOTRE DAME DU LAC, priority 2023, published 2026):

Tests used:
[1] = test system: S. aureus; experiment: Potentiation of β-lactams by cyclic boronate β-lactamase inhibitors; type: cell-based, Staphylococcus aureus
[2] = test system: S. aureus NRS144pCN52RI-Venus; experiment: Bacterial growth inhibition (OD600) in the fluorescent screening assay; type: cell-based, Staphylococcus aureus; conditions: compound at 100 mg/L^−1; OD600 after 2 h
Method: (§1) The collection of the 100 compounds from the in-silico search was screened against S. aureus NRS144pCN52RI-Venus. The screening strategy was as follows. Bacteria grown to OD600 of 0.25 were exposed concurrently to CBAP (10 mg·L^−1) and the test compound (100 mg·L^−1). Fluorescence was recorded after two hours of incubation. OD600 values were also recorded to identify compounds with inherent antibacterial activity. Compound 1 (Chart 1) emerged—82% diminished fluorescence as an indication of the extent of BlaR inhibition—as a suitable template for structure elaboration. This effort led to the synthesis of several dozen benzimidazole and imidazole compounds. The progression of the iterative design is depicted in Chart 1 for four compounds, culminating in 4. […] The X-ray structures for the complexes of compounds 2 (non-covalent) and 4 (covalent) with the BlaR sensor domain are shown respectively in FIG. 2b (2.0 Å resolution) and FIG. 2c (1.97 Å resolution). Compound 4 makes a covalent bond with the catalytic Ser389 and creates a network of hydrogen bonds with the BlaR active site (FIG. 2c).
(§2) Fluorescent assay for screening of BlaR potential inhibitors. A 3-mL portion of lysogeny broth (LB) medium was inoculated with NRS144pCN52RI Venus from frozen stocks and grown overnight at 37° C. The overnight culture was then diluted 1:150 fold with fresh LB containing […] of erythromycin and incubated at 37° C. to an OD600 of 0.3, at which point fluorescence was induced by the addition of CBAP to a final concentration of 10 μg·mL^−1. The culture was aliquoted (99 L) into 96-well plate and 1 L of inhibitor solution (1 mg·mL^−1 in DMSO) was added to each well. Negative control (DMSO without CBAP) and positive control (CBAP without inhibitor) were included. The plate was incubated at 30° C. for 2 h with intermittent shaking. Fluorescence and OD600 measurements were taken by a Cytation-5 multimode microplate reader. Percent inhibition of BlaR and bacterial growth were calculated using absorbance unit (AU) and OD600 values of each sample entered into this formula: […]

[3] = target: BlaR (Staphylococcus aureus, UniProt P18357); experiment: Live-cell fluorescent assay for BlaR inhibition (Venus reporter); type: cell-based, S. aureus NRS144pCN52RI-Venus; conditions: compound at 100 mg/L^−1; CBAP 10 mg·L^−1; fluorescence after 2 h
From the text: (§3) Live-Cell Fluorescent Assay in Discovery and Mechanism of Action. We conceived of fluorescent constructs in the bla operon, for the purpose of screening (FIG. 2a). We removed the gene for the β-lactamase (blaZ) and put in its place individually the genes for the Green Fluorescent Protein (GFP), Venus (a yellow-fluorescent protein) or mCherry (a red-fluorescent protein) in the template plasmid pCN52. The three plasmids were named pCN52RI, pCN52RI-Venus and pCN52RI-mCherry, respectively. The genes for the fluorescent proteins were transcribed under the promoter of the blaZ gene and were regulated by the proteins BlaR and BlaI, as is the case for the wild-type bla operon.
(§4) We transformed separately S. aureus NRS144—a laboratory strain that accepts a foreign gene and harbors neither the bla nor the mec operons—with each of these plasmids. […] When induced, the fluorescent protein is produced and is detected (akin to expression of the resistance genes blaZ or mecA in typical MSSA and MRSA). […] The transformed strains were grown in tryptic soy broth medium for overnight culture and strain maintenance and incubated in cation-adjusted Mueller-Hinton broth medium for inhibitor screening in a 96-well microplate format. The culture without CBAP addition was the negative control. In order to select a desirable reporter construct, we compared the intensity of the fluorescence produced from each construct at the wavelengths given in FIG. 2a using the Cytation-5 multi-mode microplate reader. Among the three constructs, pCN52RI-Venus produced the best fluorescence intensity and pCN52RI-mCherry was the second best (FIG. 4).
as §1, §2

[4] = test system: modified bla operons (pCN52RI, pCN52RI-venus, pCN52RI-mCherry); experiment: Induction of fluorescent reporters of the bla operon by CBAP; type: cell-based, S. aureus NRS144
From the text: FIG. 4. Comparison of the fluorescence intensity produced by S. aureus NRS144 strains harboring pCN52RI, pCN52RI-venus and pCN52RI-mCherry. Each fluorescent protein was induced by the β-lactam antibiotic CBAP. The ratios of fluorescence in the presence of CBAP to that in the absence of it were 3, 10 and 5 for GFP, Venus, and mCherry, respectively. Data were derived from four independent assays.
as §3, §4
Construction of the fluorescent-reporter systems. […]

[5] = test system: NRS144 strain; experiment: MIC of the inducer CBAP; type: cell-based, Staphylococcus aureus

BlaR, sequence (P18357 whole entry): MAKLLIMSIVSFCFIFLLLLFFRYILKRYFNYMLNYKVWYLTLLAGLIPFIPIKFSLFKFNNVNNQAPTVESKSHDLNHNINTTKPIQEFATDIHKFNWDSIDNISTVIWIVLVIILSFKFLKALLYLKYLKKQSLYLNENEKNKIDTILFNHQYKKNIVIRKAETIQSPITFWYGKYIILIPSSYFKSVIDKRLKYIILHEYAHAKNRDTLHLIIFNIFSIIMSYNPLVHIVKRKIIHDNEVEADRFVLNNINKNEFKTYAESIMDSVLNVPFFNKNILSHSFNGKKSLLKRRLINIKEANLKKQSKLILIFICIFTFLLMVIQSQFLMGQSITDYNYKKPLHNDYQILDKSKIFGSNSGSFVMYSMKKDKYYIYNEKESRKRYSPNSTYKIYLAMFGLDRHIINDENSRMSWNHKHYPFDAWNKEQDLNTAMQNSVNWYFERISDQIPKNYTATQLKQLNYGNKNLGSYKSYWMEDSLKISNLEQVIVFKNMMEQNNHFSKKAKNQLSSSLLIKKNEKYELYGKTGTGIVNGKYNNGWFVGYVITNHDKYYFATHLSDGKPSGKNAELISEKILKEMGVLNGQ

| Compound | % Inhibition of bacterial growth [2] | % Inhibition of BlaR [3] | also measured |
| --- | --- | --- | --- |
| NCCN[C@H]1CC[C@H](CC(=O)N[C@H]2Cc3cccc(C(=O)O)c3OB2O)CC1 [taniborbactam] | – | – | potentiation of the anti-S. aureus activities of MEM, OXA, FOX and CPT [1]: no activity |
| O=C(O)C[C@@H]1CC[C@H](NC(=O)Cc2cccs2)B(O)O1 [vaborbactam] | – | – | potentiation of the anti-S. aureus activities of MEM, OXA, FOX and CPT [1]: no activity |
| COC(=O)c1ccc2nc(SCCC#N)n(Cc3ccc(C(F)(F)F)cc3C(F)(F)F)c2c1 [Compound 38] | 16% | 89% | – |
| O=S(=O)(Cl)c1nc(CO)cn1Cc1ccc(C(F)(F)F)cc1C(F)(F)F [Compound 57] | 0% | 83% | – |
| O=S(=O)(O)c1nc2ccccc2n1Cc1ccc(F)cc1C(F)(F)F [Compound 11] | 0% | 78% | – |
| 2-(2-carboxyphenyl)-benzoyl-6-aminopenicillanic acid [CBAP] | – | – | ratio of fluorescence in the presence of CBAP to that in the absence ([4]; GFP (pCN52RI)): 3; ratio of fluorescence in the presence of CBAP to that in the absence ([4]; Venus (pCN52RI-venus)): 10; ratio of fluorescence in the presence of CBAP to that in the absence ([4]; mCherry (pCN52RI-mCherry)): 5; minimal-inhibitory concentration (MIC) [5]: 64 mg/L |
| OCc1nn(Cc2ccc(C(F)(F)F)cc2C(F)(F)F)c(=S)[nH]1 [Compound 78] | 56% | 70% | – |
| COC(=O)c1ccc2nc(SCCCC#N)n(Cc3ccc(C(F)(F)F)cc3C(F)(F)F)c2c1 [Compound 39] | 25% | 92% | – |
| FC(F)(F)c1ccc(Cn2c(=S)[nH]c3ccccc32)c(C(F)(F)F)c1 [Compound 8, 1-[[2,4-Bis(trifluoromethyl)phenyl]methyl]benzimidazole-2-thione] | 10% | 65% | – |
| N#Cc1cn(Cc2ccc(C(F)(F)F)cc2C(F)(F)F)cn1 [Compound 55] | 0% | 0% | – |
| NSc1nc([C@H](O)[C@H](O)CO)cn1Cc1ccccc1 [Compound 52] | 0% | 33% | – |
| OCc1cn(Cc2ccc(C(F)(F)F)cc2C(F)(F)F)c(Cl)n1 [Compound 58] | 0% | 43% | – |
| COC(=O)c1ccc2nc(SC[B-]34OC(=O)C[N+]3(C)CC(=O)O4)n(Cc3ccc(C(F)(F)F)cc3C(F)(F)F)c2c1 (stereo not drawn) [Compound 35] | 33% | 98% | – |
| CC(=O)NCc1ccc2nc(S)n(Cc3ccc(C(F)(F)F)cc3C(F)(F)F)c2c1 | 0% | 70% | – |
| O=S(=O)(O)c1nc2ccccc2n1Cc1ccccc1C(F)(F)F [Compound 13] | 0% | 69% | – |
| O=S(=O)(O)c1nc2ccccc2n1Cc1ccc(Cl)cc1 [Compound 12] | 0% | 72% | – |
| OCc1cn(Cc2ccc(C(F)(F)F)cc2C(F)(F)F)c(=S)[nH]1 [Compound 2, 4-(Hydroxymethyl)-1-[[2,4-bis(trifluoromethyl)phenyl]methyl]-2H-imidazole-2-thione] | 0% | 92% | – |
| NCc1ccc2nc(S)n(Cc3ccc(C(F)(F)F)cc3C(F)(F)F)c2c1 [Compound 14] | 0% | 60% | – |
| O=C(/C=C/c1ccc(Cl)cc1Cl)NCc1ccc2nc(S)n(Cc3ccc(C(F)(F)F)cc3C(F)(F)F)c2c1 [Compound 25] | 50% | 75% | – |
| FC(F)(F)c1ccc(Cn2c(CBr)nc3ccccc32)c(C(F)(F)F)c1 [Compound 41] | 36% | 78% | – |
| O=S(=O)(O)c1nc(CO)cn1Cc1ccc(C(F)(F)F)cc1C(F)(F)F [Compound 60] | 0% | 0% | – |
| OB(O)CSc1nc2ccccc2n1Cc1ccc(C(F)(F)F)cc1C(F)(F)F [Compound 3] | 20% | 98% | – |
| NCc1cn(Cc2ccc(C(F)(F)F)cc2C(F)(F)F)c(=S)[nH]1 [Compound 48] | 90% | 50% | – |
| O=C(CCc1ccc(F)cc1)NCc1ccc2nc(S)n(Cc3ccc(C(F)(F)F)cc3C(F)(F)F)c2c1 [Compound 29] | 0% | 59% | – |
